Reference: ChEMBL document CHEMBL1201862, “PubChem BioAssay data set” (2004)
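Step 1: Grow cells in 96-well plates. Step 2: Expose to compound for 48 hours at 5 concentrations. Step 3: Interpolate endpoints linearly; if unreached, use highest concentration. At the GI50, growth is halved.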 Calls of active or inactive are those of the source. Rule as the data show it: active = GI50 up to about 1.1 µM and inactive = higher.

Assays:
Test in all cases: DTP human tumour cell line panel, 48 h
A549 = tested on: A549
CAKI-1 = tested on: CAKI-1
DU-145 = tested on: DU-145
HCC 2998 = tested on: HCC 2998
HL-60 = tested on: HL-60
HT-29 = tested on: HT-29
M14 = tested on: M14
MCF7 = tested on: MCF7
Malme-3M = tested on: Malme-3M
NCI-H460 = tested on: NCI-H460
OVCAR-3 = tested on: OVCAR-3
OVCAR-4 = tested on: OVCAR-4
PC-3 = tested on: PC-3
SF-268 = tested on: SF-268
SF-539 = tested on: SF-539
SK-MEL-2 = tested on: SK-MEL-2
SK-MEL-5 = tested on: SK-MEL-5
UACC-257 = tested on: UACC-257
UO-31 = tested on: UO-31
UACC-62 = tested on: UACC-62

Measured: GI50

C=Cc1nc(C#N)c(N)o1
inactive: A549 > 100 µM | CAKI-1 > 100 µM | DU-145 > 100 µM | HCC 2998 > 100 µM | HL-60 > 100 µM | HT-29 > 100 µM | M14 > 100 µM | MCF7 > 100 µM | Malme-3M > 100 µM | NCI-H460 > 100 µM | OVCAR-3 > 100 µM | OVCAR-4 > 100 µM | PC-3 > 100 µM | SF-268 > 100 µM | SF-539 > 100 µM | SK-MEL-2 > 100 µM | SK-MEL-5 > 100 µM | UACC-257 > 100 µM | UO-31 > 100 µM

CSc1nc2c(c(=O)n1C)N=C(c1ccccc1)[C@H](C(CC(=O)c1ccccc1)c1ccccc1)C(c1ccccc1)N2 (stereo partly specified)
inactive: A549 31.8 µM | CAKI-1 > 100 µM | DU-145 > 100 µM | HCC 2998 > 100 µM | HL-60 5.22 µM | HT-29 > 100 µM | M14 > 100 µM | MCF7 37.1 µM | Malme-3M > 100 µM | NCI-H460 9.2 µM | OVCAR-3 > 100 µM | OVCAR-4 23.6 µM | PC-3 9.84 µM | SF-539 > 100 µM | SK-MEL-2 > 100 µM | SK-MEL-5 > 100 µM | UACC-257 > 100 µM | UACC-62 > 100 µM | UO-31 15 µM

NCC(=O)N1CCN(c2nc(N3CCCC3)c3nc(Cl)c(NCc4ccccc4)nc3n2)CC1
inactive: A549 1.87 µM | CAKI-1 2.44 µM | DU-145 2.41 µM | HCC 2998 1.66 µM | HL-60 1.81 µM | HT-29 1.91 µM | M14 1.72 µM | MCF7 1.83 µM | Malme-3M 2.15 µM | NCI-H460 1.85 µM | OVCAR-3 1.82 µM | OVCAR-4 2.15 µM | PC-3 2.48 µM | SF-268 2.07 µM | SF-539 1.99 µM | SK-MEL-2 1.86 µM | SK-MEL-5 1.72 µM | UACC-257 1.74 µM | UACC-62 1.8 µM | UO-31 1.66 µM

CCOC(=O)C1(C(=O)OCC)[C@@H](c2ccccc2)C2=NO[C@@H]3CCC[C@H]1[C@H]23
inactive: A549 48.4 µM | CAKI-1 44.9 µM | DU-145 > 100 µM | HCC 2998 18 µM | HL-60 24.3 µM | HT-29 45.4 µM | M14 31.9 µM | MCF7 41.7 µM | Malme-3M > 100 µM | NCI-H460 57.7 µM | OVCAR-3 27 µM | OVCAR-4 43 µM | PC-3 60.1 µM | SF-268 > 100 µM | SF-539 96.2 µM | SK-MEL-2 55.5 µM | SK-MEL-5 24.3 µM | UACC-257 24 µM | UACC-62 8.26 µM | UO-31 53.3 µM

CC(=O)N1CN2C(=O)CCC2c2cc(C)ccc21 (stereo unspecified)
inactive: A549 > 100 µM | CAKI-1 > 100 µM | DU-145 > 100 µM | HCC 2998 > 100 µM | HL-60 > 100 µM | HT-29 > 100 µM | M14 > 100 µM | MCF7 > 100 µM | Malme-3M > 100 µM | NCI-H460 > 100 µM | OVCAR-3 > 100 µM | OVCAR-4 > 100 µM | PC-3 > 100 µM | SF-268 > 100 µM | SF-539 > 100 µM | SK-MEL-2 > 100 µM | SK-MEL-5 > 100 µM | UACC-257 > 100 µM | UACC-62 > 100 µM | UO-31 > 100 µM

O=c1cc(CO)oc(C(O)c2ccccc2)c1O (stereo unspecified)
inactive: A549 > 100 µM | CAKI-1 > 100 µM | DU-145 > 100 µM | HCC 2998 > 100 µM | HL-60 > 100 µM | HT-29 > 100 µM | M14 > 100 µM | MCF7 > 100 µM | Malme-3M > 100 µM | NCI-H460 > 100 µM | OVCAR-3 > 100 µM | OVCAR-4 > 100 µM | PC-3 > 100 µM | SF-268 > 100 µM | SF-539 > 100 µM | SK-MEL-2 > 100 µM | SK-MEL-5 > 100 µM | UACC-257 > 100 µM | UACC-62 > 100 µM | UO-31 > 100 µM

COC12C=CC(CC1)C(C)(C)C2=O (stereo unspecified)
inactive: A549 > 100 µM | CAKI-1 > 100 µM | DU-145 > 100 µM | HCC 2998 > 100 µM | HL-60 > 100 µM | HT-29 > 100 µM | M14 > 100 µM | MCF7 > 100 µM | Malme-3M > 100 µM | NCI-H460 > 100 µM | OVCAR-3 > 100 µM | OVCAR-4 > 100 µM | PC-3 > 100 µM | SF-268 > 100 µM | SF-539 > 100 µM | SK-MEL-2 > 100 µM | SK-MEL-5 > 100 µM | UACC-257 > 100 µM | UACC-62 > 100 µM | UO-31 > 100 µM

N#CC(N)c1ccc(OCCCCCCCCCCOc2ccc(C(N)C#N)cc2)cc1 (stereo unspecified)
inactive: A549 > 100 µM | CAKI-1 > 100 µM | DU-145 > 100 µM | HCC 2998 > 100 µM | HL-60 52.1 µM | HT-29 > 100 µM | M14 > 100 µM | MCF7 > 100 µM | Malme-3M > 100 µM | NCI-H460 > 100 µM | OVCAR-3 > 100 µM | OVCAR-4 > 100 µM | PC-3 > 100 µM | SF-268 > 100 µM | SF-539 > 100 µM | SK-MEL-2 81.8 µM | SK-MEL-5 > 100 µM | UACC-257 > 100 µM | UACC-62 > 100 µM | UO-31 > 100 µM

COc1ccc(NCC(=O)Nn2c(C)nc3ccc(S(=O)(=O)Nc4ccc(OC)cc4)cc3c2=O)cc1
inactive: A549 > 100 µM | CAKI-1 > 100 µM | DU-145 > 100 µM | HCC 2998 > 100 µM | HL-60 > 100 µM | HT-29 > 100 µM | M14 > 100 µM | MCF7 > 100 µM | Malme-3M > 100 µM | NCI-H460 > 100 µM | OVCAR-3 > 100 µM | OVCAR-4 > 100 µM | PC-3 > 100 µM | SF-268 > 100 µM | SF-539 > 100 µM | SK-MEL-2 > 100 µM | UACC-257 > 100 µM | UACC-62 > 100 µM | UO-31 > 100 µM

Cc1cccc2c1c(=O)c1c(O)c3c(cc1n2C)OC(C)(C)C=C3
inactive: A549 > 10 µM | CAKI-1 > 10 µM | DU-145 > 10 µM | HCC 2998 > 10 µM | HL-60 > 10 µM | HT-29 3.59 µM | M14 > 10 µM | MCF7 6.15 µM | Malme-3M > 10 µM | NCI-H460 > 10 µM | OVCAR-3 > 10 µM | OVCAR-4 > 10 µM | PC-3 > 10 µM | SF-268 > 10 µM | SF-539 > 10 µM | SK-MEL-2 > 10 µM | SK-MEL-5 > 10 µM | UACC-257 > 10 µM | UACC-62 > 10 µM

O=C(Nc1nncs1)NS(=O)(=O)n1cnc2ccccc21
inactive: A549 > 100 µM | CAKI-1 > 100 µM | DU-145 > 100 µM | HCC 2998 > 100 µM | HL-60 > 100 µM | HT-29 > 100 µM | M14 > 100 µM | MCF7 > 10 µM | Malme-3M > 100 µM | NCI-H460 > 100 µM | OVCAR-3 > 100 µM | OVCAR-4 > 100 µM | PC-3 > 100 µM | SF-268 > 100 µM | SF-539 > 100 µM | SK-MEL-2 > 100 µM | SK-MEL-5 > 100 µM | UACC-257 > 100 µM | UACC-62 > 100 µM

Cc1cc(O)c2c(c1O)C(=O)c1c(O)ccc(O)c1C2=O [Cynodontin]
inactive: A549 > 100 µM | CAKI-1 > 100 µM | DU-145 > 100 µM | HCC 2998 > 100 µM | HL-60 > 100 µM | HT-29 > 100 µM | M14 > 100 µM | MCF7 > 100 µM | Malme-3M > 100 µM | NCI-H460 > 100 µM | OVCAR-3 > 100 µM | OVCAR-4 > 100 µM | PC-3 > 100 µM | SF-268 > 100 µM | SF-539 > 100 µM | SK-MEL-2 > 100 µM | SK-MEL-5 > 100 µM | UACC-257 > 100 µM | UACC-62 > 100 µM

Cc1ccc(/C=C2\N=C(N3CCCC(CO)C3)NC2=O)cc1 (stereo unspecified)
inactive: A549 > 100 µM | CAKI-1 > 100 µM | DU-145 > 100 µM | HCC 2998 > 100 µM | HL-60 > 100 µM | HT-29 > 100 µM | M14 > 100 µM | MCF7 > 100 µM | Malme-3M > 100 µM | OVCAR-3 > 100 µM | OVCAR-4 > 100 µM | PC-3 > 100 µM | SF-268 > 100 µM | SF-539 > 100 µM | SK-MEL-2 > 100 µM | SK-MEL-5 > 100 µM | UACC-257 > 100 µM | UACC-62 > 100 µM | UO-31 > 100 µM

CCCCCC/C=C/C#CCCCCCCCC(=O)O
inactive: A549 > 100 µM | CAKI-1 > 100 µM | DU-145 > 100 µM | HCC 2998 > 100 µM | HL-60 > 100 µM | HT-29 > 100 µM | M14 > 100 µM | MCF7 > 100 µM | Malme-3M > 100 µM | NCI-H460 > 100 µM | OVCAR-3 > 100 µM | OVCAR-4 > 100 µM | PC-3 > 100 µM | SF-268 > 100 µM | SF-539 > 100 µM | SK-MEL-2 > 100 µM | SK-MEL-5 > 100 µM | UACC-257 > 100 µM
